Assay results taken from patent publication US20040259135A1, “Biosynthetic labeling and separation of RNA” (priority 2003, published 2004).

Key:
[1] = biological target: UPRT of the protozoan Toxoplasma gondii (Toxoplasma gondii, UniProt Q26998); conditions: purified enzyme; 100 different compounds tested in previous studies; cited from earlier work
HeLa cells = experiment: Incorporation of thiouracil into RNA of HeLa cells with or without the Toxoplasma UPRT gene (northern blot); format: cell-based, human; conditions: 6 hours
Description: Methods and Results: The coding region of the Toxoplasma UPRT gene was incorporated into the retroviral vector known as LNCX (Miller & Rosman (1989) BioTechniques 7:980-990), placing the UPRT gene under control of the cytomegalovirus immediate-early promoter. This construct was introduced into HeLa cells and cell lines that had stably incorporated the vector were selected using neomycin. Cells that survived this selection and non-transfected HeLa cells were both grown in the presence of 2,4-dithiouracil for 6 hours. RNA was isolated from these cells and labeled with HPDP-biotin as described above. Incorporation of thiouracil was detected by northern blot as described above.

Toxoplasma RNA = experiment: Incorporation of thiouracil into Toxoplasma RNA (HPDP-biotin labeling, northern blot probed with streptavidin-HRP); format: cell-based, Toxoplasma gondii; conditions: 6 hours
Description: (§1) To test for the incorporation of thiouracil into RNA, wild type (WT) parasites and mutants that lack the UPRT enzyme (UPRT(−)) were used to infect human foreskin fibroblasts in culture after which, the normal medium was replaced with medium containing 2 mM 2,4-dithiouracil. Following growth in this medium for 6 hours, the infected cells were harvested and RNA prepared by standard methods using Trizol reagent from Gibco-BRL.
(§2) The resulting RNA was incubated with HPDP-biotin (EZ-Link Biotin-HPDP (N-(6-(Biotinamido)hexyl)-3′-(2′-pyridyidithio)-propionamide) from Pierce Biotechnology) which specifically reacts with free thiols which are normally not present in RNA. For both RNA samples (WT and UPRT(−)) 25 μg of RNA was incubated with 50 μl of a 1 mg/ml Biotin-HPDP solution and Tris HCl/EDTA buffer (pH 7.4) for 1.5 hours. Biotinylated RNA was precipitated from any excess biotin by isopropanol precipitation and centrifugation. Approximately 2.5 μg of this material was resolved by agarose gel electrophoresis and transferred to a nitrocellulose filter, all by standard procedures. The resulting filter was then probed with streptavidin conjugated to horseradish peroxidase (Streptavidin-HRP) and the bound material detected with chemiluminescence (using the ECL kit from Amersham). […] The upper-most major band is from the large subunit of the human ribosome.

human RNA = experiment: Incorporation of thiouracil into RNA of human foreskin fibroblast host cells (HPDP-biotin, streptavidin-HRP northern blot); format: cell-based; conditions: Toxoplasma-infected human foreskin fibroblasts, 2 mM, 6 hours
Description: as §1, §2

T gondii = experiment: Growth of T gondii within human foreskin fibroblast cells in media containing 2,4-dithiouracil; format: cell-based, Toxoplasma gondii; conditions: 5 μM to 2 mM 2,4-dithiouracil, even at highest concentration (2 mM); replication monitored over time
Description: (§3) Methods and Results: Initial experiments assayed the growth of T gondii within human foreskin fibroblast cells in media containing a range of concentrations of 2,4-dithiouracil (5 μM to 2 mM). Equivalent numbers of parasites were used to infect host cells and the replication of the parasites in the different concentrations of 2,4-dithiouracil was monitored over time.

[2] = tested on: human foreskin fibroblast cells; experiment: Growth of human foreskin fibroblast host cells in media containing 2,4-dithiouracil; format: cell-based; conditions: 5 μM to 2 mM 2,4-dithiouracil, even at highest concentration (2 mM)
Description: as §3

UPRT of the protozoan Toxoplasma gondii, sequence (Q26998 whole entry): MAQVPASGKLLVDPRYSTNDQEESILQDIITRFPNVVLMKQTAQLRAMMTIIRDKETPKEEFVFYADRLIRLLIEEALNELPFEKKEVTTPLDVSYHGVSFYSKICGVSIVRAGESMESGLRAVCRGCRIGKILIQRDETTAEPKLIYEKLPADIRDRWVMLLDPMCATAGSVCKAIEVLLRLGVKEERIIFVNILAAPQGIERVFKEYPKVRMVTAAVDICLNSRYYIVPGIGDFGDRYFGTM

Row | Compound | substrate of purified UPRT (conversion into nucleoside monophosphate) [1] | incorporation of thiouracil into RNA (HeLa cells; HeLa cells that had received the Toxoplasma UPRT gene) | incorporation of thiouracil into RNA (HeLa cells; normal (non-transfected) HeLa cells) | incorporation of thiouracil into Toxoplasma RNA, UPRT dependence (Toxoplasma RNA; WT versus mutants that lack the UPRT enzyme (UPRT(−)), 2 mM) | incorporation of thiouracil into Toxoplasma ribosomal RNA (Toxoplasma RNA; wild type parasites in human foreskin fibroblasts, 2 mM 2,4-dithiouracil) | incorporation into human RNA (human RNA) | growth defects of the parasites (T gondii) | growth defects of the human cells [2]
1 | O=c1c[n+]([O-])cc[nH]1 [emimycin] | known toxic substrates |  |  |  |  |  |  | 
2 | O=c1[nH]cc(F)c(=O)[nH]1 [5-fluorouracil] | known toxic substrates |  |  |  |  |  |  | 
3 | Sc1ccnc(S)n1 [2,4-dithiouracil] | converted into UMP | good incorporation at a level similar to that seen with the parasites | lack the ability to incorporate the thiouracil | only in parasites with the UPRT enzyme | two of the three major bands detectable by ethidium staining of the RNA have thiouracil incorporated into them | not incorporated | No growth defects | No growth defects
